Values quoted from earlier work in PubChem BioAssay AID1259409 (Chemical Carcinogenesis Research Information System (CCRIS), 2018).

System: rodent chemically induced tumor inhibition, incidence and multiplicity
Experiment: CCRIS tumor inhibitor studies
Details: Promoter: NONE

| Compound | tumour outcome (control, treated, inhibition, significance) (Carcinogen: 7,12-DIMETHYLBENZ[A]ANTHRACENE [57-97-6], Dose [Inhibitor]: 0.25 MG/KG BW/D FOR 4 WK BEGINNING 4 WK PRIOR TO FIRST CARCINOGEN DOSE (STUDY DURATION: 32 WK), Route [Inhibitor]: INTRAPERITONEAL, Species: RAT, Strain/Sex: SPRAGUE-DAWLEY/FEMALE, Target Tissue: Type of Lesion: MAMMARY GLAND: TUMOR, Dose [Carcinogen]: 10 MG IN 1 ML PEANUT OIL ONCE (STUDY DURATION: 32 WK)) | tumour outcome (control, treated, inhibition, significance) (Carcinogen: 7,12-DIMETHYLBENZ[A]ANTHRACENE [57-97-6], Dose [Inhibitor]: 0.25 MG/KG BW/D FOR 4 WK BEGINNING 4 WK PRIOR TO FIRST CARCINOGEN DOSE, FOLLOWED BY 0.25 MG/KG BW/D FOR 27 WK POST LAST, Route [Inhibitor]: INTRAPERITONEAL, Species: RAT, Strain/Sex: SPRAGUE-DAWLEY/FEMALE, Target Tissue: Type of Lesion: MAMMARY GLAND: TUMOR, Dose [Carcinogen]: 10 MG IN 1 ML PEANUT OIL ONCE (STUDY DURATION: 32 WK)) | tumour outcome (control, treated, inhibition, significance) (Carcinogen: 7,12-DIMETHYLBENZ[A]ANTHRACENE [57-97-6], Dose [Inhibitor]: 0.25 MG/KG BW/D FOR 27 WK BEGINNING 4 D POST LAST CARCINOGEN DOSE (STUDY DURATION: 32 WK), Route [Inhibitor]: INTRAPERITONEAL, Species: RAT, Strain/Sex: SPRAGUE-DAWLEY/FEMALE, Target Tissue: Type of Lesion: MAMMARY GLAND: TUMOR, Dose [Carcinogen]: 10 MG IN 1 ML PEANUT OIL ONCE (STUDY DURATION: 32 WK)) | tumour outcome (control, treated, inhibition, significance) (Carcinogen: 7,12-DIMETHYLBENZ[A]ANTHRACENE [57-97-6], Dose [Inhibitor]: 2.5 MG/KG BW/D FOR 4 WK BEGINNING 4 WK PRIOR TO FIRST CARCINOGEN DOSE (STUDY DURATION: 32 WK), Route [Inhibitor]: INTRAPERITONEAL, Species: RAT, Strain/Sex: SPRAGUE-DAWLEY/FEMALE, Target Tissue: Type of Lesion: MAMMARY GLAND: TUMOR, Dose [Carcinogen]: 10 MG IN 1 ML PEANUT OIL ONCE (STUDY DURATION: 32 WK)) | tumour outcome (control, treated, inhibition, significance) (Carcinogen: 7,12-DIMETHYLBENZ[A]ANTHRACENE [57-97-6], Dose [Inhibitor]: 2.5 MG/KG BW/D FOR 4 WK BEGINNING 4 WK PRIOR TO FIRST CARCINOGEN DOSE, FOLLOWED BY 2.5 MG/KG BW/D FOR 27 WK POST LAST CA, Route [Inhibitor]: INTRAPERITONEAL, Species: RAT, Strain/Sex: SPRAGUE-DAWLEY/FEMALE, Target Tissue: Type of Lesion: MAMMARY GLAND: TUMOR, Dose [Carcinogen]: 10 MG IN 1 ML PEANUT OIL ONCE (STUDY DURATION: 32 WK)) | tumour outcome (control, treated, inhibition, significance) (Carcinogen: 7,12-DIMETHYLBENZ[A]ANTHRACENE [57-97-6], Dose [Inhibitor]: 2.5 MG/KG BW/D FOR 27 WK BEGINNING 4 D POST LAST CARCINOGEN DOSE (STUDY DURATION: 32 WK), Route [Inhibitor]: INTRAPERITONEAL, Species: RAT, Strain/Sex: SPRAGUE-DAWLEY/FEMALE, Target Tissue: Type of Lesion: MAMMARY GLAND: TUMOR, Dose [Carcinogen]: 10 MG IN 1 ML PEANUT OIL ONCE (STUDY DURATION: 32 WK)) | tumour outcome (control, treated, inhibition, significance) (Carcinogen: 4-(METHYLNITROSAMINO)-1-(3-PYRIDLY)-1-BUTANONE [64091-91-4], Dose [Inhibitor]: 1 MG/KG BW 3X/WK FOR 31 WK BEGINNING 1 WK POST LAST CARCINOGEN DOSE (STUDY DURATION: 52 WK), Route [Inhibitor]: SUBCUTANEOUS, Species: HAMSTER, Strain/Sex: SYRIAN/MALE, Target Tissue: Type of Lesion: LUNG: TUMOR, Dose [Carcinogen]: 10 MG/KG BW 3X/WK FOR 20 WK (STUDY DURATION: 52 WK)) | tumour outcome (control, treated, inhibition, significance) (Carcinogen: 4-(METHYLNITROSAMINO)-1-(3-PYRIDLY)-1-BUTANONE [64091-91-4], Dose [Inhibitor]: 1 MG/KG BW 3X/WK FOR 31 WK BEGINNING 1 WK POST LAST CARCINOGEN DOSE (STUDY DURATION: 52 WK), Route [Inhibitor]: SUBCUTANEOUS, Species: HAMSTER, Strain/Sex: SYRIAN/MALE, Target Tissue: Type of Lesion: NASAL CAVITY: TUMOR, Dose [Carcinogen]: 10 MG/KG BW 3X/WK FOR 20 WK (STUDY DURATION: 52 WK)) |
| --- | --- | --- | --- | --- | --- | --- | --- | --- |
| C#CCN(C)[C@H](C)Cc1ccccc1 | 13/15 (87%), 8/15 (53%), 39%, not significant | 13/15 (87%), 9/15 (60%), 31%, not significant | 13/15 (87%), 10/15 (67%), 23%, not significant | 13/15 (87%), 8/15 (53%), 39%, not significant | 13/15 (87%), 5/15 (33%), 62%, p<0.0001 | 13/15 (87%), 6/15 (40%), 54%, p<0.0001 |  |  |
| CNC[C@H](O)c1ccc(O)c(O)c1 |  |  |  |  |  |  | 12/15 (80.0%), 15/15 (100.0%), -25%, not calculated | 4/15 (26.7%), 3/15 (20.0%), 25%, not calculated |
